# In US9926377B2, “Anti-GPC3 antibodies and immunoconjugates” (GENENTECH, INC., priority 2014, dated 2018):
# Like-named read-outs stand apart in the source and are kept apart here.
# T1: human GPC3 (Homo sapiens, UniProt P51654)
# T1 construct: C-terminal glycophosphatidylinositol anchor (GPI link) (C); expressed in transfected cells; host or cells: 293 cells
# T1 sequence (P51654 359-420): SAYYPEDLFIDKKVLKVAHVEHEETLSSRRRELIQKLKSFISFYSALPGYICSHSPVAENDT
# T2: human GPC3 (Homo sapiens, UniProt P51654)
# T2 construct: C-terminal glycophosphatidylinositol anchor (GPI link) (C); expressed in transfected cells; host or cells: 293 cells
# T2 sequence (P51654 359-470): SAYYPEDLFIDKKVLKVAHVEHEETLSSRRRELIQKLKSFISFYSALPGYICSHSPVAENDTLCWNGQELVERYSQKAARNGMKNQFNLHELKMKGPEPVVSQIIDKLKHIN
# T3: human GPC3 (Homo sapiens, UniProt P51654)
# T3 construct: C-terminal glycophosphatidylinositol anchor (GPI link) (C); expressed in transfected cells; host or cells: 293 cells
# T3 sequence (P51654 359-509): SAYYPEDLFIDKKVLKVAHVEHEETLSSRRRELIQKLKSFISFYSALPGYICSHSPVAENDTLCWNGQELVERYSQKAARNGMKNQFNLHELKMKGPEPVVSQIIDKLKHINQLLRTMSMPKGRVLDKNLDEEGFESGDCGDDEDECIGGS
# T4: human GPC3 (Homo sapiens, UniProt P51654)
# T4 construct: C-terminal glycophosphatidylinositol anchor (GPI link) (C); expressed in transfected cells; host or cells: 293 cells
# T4 sequence (P51654 359-559): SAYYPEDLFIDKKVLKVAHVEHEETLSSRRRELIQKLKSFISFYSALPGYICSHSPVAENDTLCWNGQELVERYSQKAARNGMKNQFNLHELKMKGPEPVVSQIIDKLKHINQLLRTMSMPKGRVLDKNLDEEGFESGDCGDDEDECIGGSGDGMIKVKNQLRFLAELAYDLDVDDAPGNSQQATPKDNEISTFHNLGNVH
# B1: 15G1: anti-GPC3 monoclonal antibody; heavy and light chain variable regions SEQ ID NOs: 18 and 19 (antibody, V domains shown)
# VH: EVQLLETGGGLVQPGGSRGLSCEGSGFTFSGFWMSWVRQTPGKTLEWIGDINSDGSSINYAPSIKDRFTIFRDNDKSILYLQMTNVRSEDTGTYFCVTTYGDYWGQGTTLTVSS
# VL: DIVMTQSQKFMSTSVGDRVSVTCKASQNVGSHVGWYQQKSGQSPKALIYSASNRYIGVPDRFTGSGSGTDFTLTISNVQSEDLAEYFCQQYHIYPYTFGGGTRLEIK
# B2: 4A11: anti-GPC3 monoclonal antibody; heavy and light chain variable regions SEQ ID NOs: 10 and 11 (antibody, V domains shown)
# VH: EVQLQQSAAELARPGASVRMSCRTSGYTFTTYTIHWMKQRPGQGLEWIGYINPNGGYTEYNQKFRDRTTLTADKSSSTAYMQLSSLTSEDSAVYYCTRNFDYWGQGTTLTVSS
# VL: DIVMTQSPSSMYASLGERVTITCKASQDINSYLSWFQQKPGKSPKTLIYRVNRLVDGVPSRFSGSGSGQDYSLTISSLEYEDVGIYYCLQYDEFPLTLGAGTKLELK
# What was measured:
# [1] = test system: 293S; assay: Cell line sensitivity (proliferation, CellTiter-GloII), 293S; type: cell-based; conditions: 120 h
# Description: (§1) Various GPC3-expressing cell lines were tested for sensitivity to free nemorubicin derivative, PNU-159682, which has the structure:
# (§2) [drawing 32] as follows. Proliferation in the presence of PNU-159682 or SG-2057 were assessed using cells plated at 1000 cells per well in 50 μl of normal growth medium in 96-well clear-bottom plates (PerkinElmer Life Sciences). Twenty-four hours later, an additional 50 μl of culture medium with serial dilutions of the drug was added to triplicate wells. Three or 5 days later, cell numbers were determined using CellTiter-GloII (Promega Corp.) and with an EnVision 2101 multilabel reader (PerkinElmer).
# [2] = test system: 293_GPC3; assay: Cell line sensitivity (proliferation, CellTiter-GloII), 293_GPC3; type: cell-based; conditions: 120 h
# Description: as §1, §2
# [3] = test system: PC3; assay: Cell line sensitivity (proliferation, CellTiter-GloII), PC3; type: cell-based; conditions: Homo sapiens, PC-3, 120 h
# Description: as §1, §2
# [4] = test system: Hep3B.2.1-7; assay: Cell line sensitivity (proliferation, CellTiter-GloII), Hep3B.2.1-7; type: cell-based; conditions: 120 h
# Description: as §1, §2
# [5] = test system: Huh7; assay: Cell line sensitivity (proliferation, CellTiter-GloII), Huh7; type: cell-based; conditions: Homo sapiens, Huh-7, 120 h
# Description: as §1, §2
# [6] = test system: HepG2; assay: Cell line sensitivity (proliferation, CellTiter-GloII), HepG2; type: cell-based; conditions: Homo sapiens
# Description: as §1, §2
# [7] = test system: JHH7; assay: Cell line sensitivity (proliferation, CellTiter-GloII), JHH7; type: cell-based
# Description: as §1, §2
# [8] = test system: JHH5; assay: Cell line sensitivity (proliferation, CellTiter-GloII), JHH5; type: cell-based; conditions: 120 h
# Description: as §1, §2
# [9] = biological target: T1, human GPC3; assay: FACS binding to huGPC truncation constructs on 293 cells; conditions: huGPC(aa359-420) on 293 cells
# Text: (§3) C-terminal truncation constructs of huGPC(aa359-589) were made to further refine the epitopes for antibodies 4A11 and 15G1. Three different […] truncations were made, comprising amino acids 359 to 420 of human GPC3, amino acids 359 to 470 of human GPC3, and amino acids 359 to 509 of human GPC3. The three C-terminal truncations each comprised an HSV N-terminal signal sequence (SS) and gD sequence (SEQ ID NO: 41) and C-terminal glycophosphatidylinositol anchor (GPI link). The huGPC truncation constructs were expressed on the surface of 293 cells and antibody binding was determined by FACS. An anti-gD was used as a positive control. Vector-transfected 293 cells were used as a negative control.
# [10] = biological target: T2, human GPC3; assay: as above; conditions: huGPC(aa359-470) on 293 cells
# Text: as §3
# [11] = biological target: T3, human GPC3; assay: as above; conditions: huGPC(aa359-509) on 293 cells
# Text: as §3
# [12] = biological target: T4, human GPC3; assay: as above; conditions: huGPC(aa359-559) on 293 cells
# Text: as §3
# [13] = test system: full-length N-terminal gD-tagged cynomolgus monkey GPC3; assay: FACS binding to cynomolgus monkey GPC3 on 293 cells; conditions: cynomolgus monkey GPC3 expressed on the surface of 293 cells
# Description: (§4) Antibodies 15G1 and 4A11 were tested for binding to full-length N-terminal gD-tagged cynomolgus monkey GPC3 and full-length N-terminal gD-tagged rat GPC3 expressed on the surface of 293 cells by FACS. Both antibodies bound to cynomolgus monkey GPC3. 15G1, but not 4A11, also bound to rat GPC3. […] The 7H1 epitope is also highly conserved between human, cynomolgus monkey, rhesus macaque, mouse, and rat GPC3, and as discussed above, antibody 7H1 detects human, cynomolgus monkey, rat, and mouse GPC3 by Western blot.
# [14] = biological target: T5, full-length N-terminal gD-tagged rat GPC3 (Rattus norvegicus, UniProt P13265); assay: FACS binding to rat GPC3 on 293 cells; conditions: rat GPC3 expressed on the surface of 293 cells
# T5 construct: full-length N-terminal gD-tagged rat GPC3 expressed on the surface of 293 cells by FACS; gD (N); expressed in transfected cells; host or cells: 293 cells
# Description: as §4
# full-length N-terminal gD-tagged cynomolgus monkey GPC3, sequence (as listed by the source): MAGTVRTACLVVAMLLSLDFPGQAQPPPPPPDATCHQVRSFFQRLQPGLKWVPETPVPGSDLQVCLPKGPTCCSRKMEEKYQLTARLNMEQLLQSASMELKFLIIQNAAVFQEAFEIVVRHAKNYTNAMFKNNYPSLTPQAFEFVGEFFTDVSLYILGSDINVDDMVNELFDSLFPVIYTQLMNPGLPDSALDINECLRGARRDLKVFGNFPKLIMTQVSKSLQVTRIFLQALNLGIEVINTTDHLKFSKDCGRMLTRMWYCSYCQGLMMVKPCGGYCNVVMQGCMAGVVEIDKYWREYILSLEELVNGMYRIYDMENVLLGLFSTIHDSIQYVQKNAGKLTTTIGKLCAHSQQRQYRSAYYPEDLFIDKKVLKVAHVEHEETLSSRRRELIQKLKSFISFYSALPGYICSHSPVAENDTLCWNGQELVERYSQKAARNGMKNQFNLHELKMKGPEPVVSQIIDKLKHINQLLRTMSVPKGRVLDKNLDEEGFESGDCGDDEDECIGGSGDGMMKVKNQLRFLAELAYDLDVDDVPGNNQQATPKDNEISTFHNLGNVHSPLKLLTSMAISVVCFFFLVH
# T5 sequence (P13265 with tags, fused parts or gaps limits assumed): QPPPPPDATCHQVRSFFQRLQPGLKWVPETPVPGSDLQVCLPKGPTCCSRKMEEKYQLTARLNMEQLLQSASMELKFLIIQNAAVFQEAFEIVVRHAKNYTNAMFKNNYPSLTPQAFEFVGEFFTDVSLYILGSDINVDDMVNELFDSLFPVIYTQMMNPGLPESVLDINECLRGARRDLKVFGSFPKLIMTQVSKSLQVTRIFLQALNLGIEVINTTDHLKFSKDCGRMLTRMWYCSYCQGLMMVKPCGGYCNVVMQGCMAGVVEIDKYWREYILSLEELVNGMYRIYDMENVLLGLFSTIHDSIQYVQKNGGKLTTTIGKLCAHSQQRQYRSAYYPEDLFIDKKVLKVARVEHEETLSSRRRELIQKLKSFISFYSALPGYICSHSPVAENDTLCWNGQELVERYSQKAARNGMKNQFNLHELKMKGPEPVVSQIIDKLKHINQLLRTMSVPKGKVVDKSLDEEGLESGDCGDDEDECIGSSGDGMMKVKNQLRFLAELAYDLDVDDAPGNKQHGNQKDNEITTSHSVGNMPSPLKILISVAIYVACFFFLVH
molecule,measurement,setting,value
C=C1C[C@H]2C=Nc3cc(OCCCCCOc4cc5c(cc4OC)C(=O)N4CC(=C)C[C@H]4C=N5)c(OC)cc3C(=O)N2C1 [SG-2057],EC50,[1],0.056 nM
same,EC50,[2],0.034 nM
same,EC50,[3],0.122 nM
same,EC50,[4],0.474 nM
same,EC50,[5],0.147 nM
same,EC50,"[6]; HepG2, 120 h",0.029 nM
same,EC50,"[7]; JHH7, 120 h",0.135 nM
same,EC50,[8],0.105 nM
COc1cccc2c1C(=O)c1c(O)c3c(c(O)c1C2=O)C[C@@](O)(C(=O)CO)C[C@@H]3O[C@H]1C[C@H]2[C@H](O[C@@H]3[C@@H](OC)OCCN32)[C@H](C)O1 [PNU-159682],EC50,"[1]; 293S, free drug, cell numbers three or 5 days after drug addition, read-out: EC50",0.022 nM
same,EC50,"[2]; 293_GPC3, free drug, cell numbers three or 5 days after drug addition, read-out: EC50",0.019 nM
same,EC50,"[3]; PC3, free drug, cell numbers three or 5 days after drug addition, read-out: EC50",0.051 nM
same,EC50,"[4]; Hep3B.2.1-7, free drug, cell numbers three or 5 days after drug addition, read-out: EC50",0.042 nM
same,EC50,"[5]; Huh7, free drug, cell numbers three or 5 days after drug addition, read-out: EC50",0.029 nM
same,EC50,"[6]; 120 h, HepG2, free drug, cell numbers three or 5 days after drug addition, read-out: EC50",0.029 nM
same,EC50,"[7]; 120 h, JHH7, free drug, cell numbers three or 5 days after drug addition, read-out: EC50",0.038 nM
same,EC50,"[8]; JHH5, free drug, cell numbers three or 5 days after drug addition, read-out: EC50",0.031 nM
B1,Binding by FACS,[9],not
same,Binding by FACS,[10],bound
same,Binding by FACS,[11],bound
same,Binding by FACS,[12],bound
same,Binding by FACS,[13],bound
same,Binding by FACS,[14],bound
B2,Binding by FACS,[9],not
same,Binding by FACS,[10],not
same,Binding by FACS,[11],bound
same,Binding by FACS,[12],bound
same,Binding by FACS,[13],bound
same,Binding by FACS,[14],not
